This is an account of results in patent US6518302B1, “Remedies” (Takara Shuzo Co., Ltd., priority 1999, dated 2003).

The test system of series [1] is HL-60 (ATCC CCL-240) cells. The series can be described thus: Analysis of DNA fragmentation. The format is cell-based, Human. To be noted: HL-60 cells, cultured for 24 or 48 hours (time not given). The method, then: HL-60 (ATCC CCL-240) cells were cultured at 37° C. in RPMI 1640 medium (Bio Whittaker) containing 10% fetal calf serum (JRH) which had been treated at 56° C. for 30 minutes and suspended in RPMI 1640 medium at a concentration of 2.5×10^5 cells/4.5 ml. […] each of aqueous solutions of the compound (2) at a concentration of 10, 50 or 100 mM, the compound (7) at a concentration of 500, 1000 or 1500 μM, the compound (9) at a concentration of 750, 1500 or 3000 μM, the compound (11) at a concentration of 750, 1500 or 3000 μM, or the compound (14) at a concentration of 750, 1500 or 3000 μM was added to 4.5 ml of the suspension. The mixtures were incubated at 37° C. for 24 hours in the presence of 5% CO2. Measurement of apoptotic cells using FACScan as described in Saibo Kogaku, Bessatsu (Cell Technology, Suppl.) Jikken Protocol Series: Apoptosis Jikken Protocol (Experimental Protocol Series: Experimental Protocols for Apoptosis) (Shujun-sha) pp. 129-130 and analysis of DNA fragmentation as described in Bio Manual UP Series: […] Apoptosis Jikken-ho (Bio Manual UP Series: Current Experimental Methods for Apoptosis) (Yodo-sha) pp. 61-63 were carried out using cells cultured for 24 or 48 hours in the same manner as that described above.

In series [2] the test system is prostaglandin E2 production in RAW264.7 cells. Put plainly: Inhibition of prostaglandin E2 production induction by LPS (ELISA). It is filed as cell-based. To be noted: compound (7), (14) or (17) at final concentration of 50, 100 or 100 μM, respectively. The method, then: RAW264.7 cells were suspended in Dulbecco's modified Eagle's medium (Bio Whittaker, Code. 12-604F) containing 10% fetal calf serum at a concentration of 3×10^5 cells/ml. 500 μl of the suspension was added to each well of a 48-well microtiter plate and the plate was incubated at 37° C. for 6 hours in the presence of 5% CO2. The compound (7), (14) or (17) prepared in Example 1 was added to the well at a final concentration of 50, 100 or 100 μM, respectively. The plate was incubated for additional 5 hours. 10 μl of 50 μg/ml lipopolysaccharide (LPS, Sigma, Code. L-2012) aqueous solution was then added to the well. After the plate was incubated for additional 12 hours, the amount of prostaglandin E2 was measured. As control groups, a group to which LPS was not added and a group to which the compound (7), (14) or (17) was not added were provided.
After cultivation, the amount of prostaglandin E2 in the culture supernatant was measured using Prostaglandin E2 ELISA Kit (Neogen, Code. 404110). All of the measurements were carried out in triplicate.
FIG. 21 illustrates the prostaglandin E2 concentration in the medium obtained by incubating under various culture conditions. In FIG. 21, the horizontal axis represents the culture conditions and the vertical axis represents the prostaglandin E2 concentration (ng/ml).
(In general: An ELISA detects its analyte on a solid surface through an enzyme-linked reagent.)

In series [3] the test system is IL-10 production in RAW264.7 cells. Put plainly: Inhibition of LPS-induced IL-10 production (ELISA). The format is cell-based, Mouse. To be noted: 0.5 ml, 5 μl of 10 mM compound (14), 1 μl of 25 mM compound (7) or 1 μl of 50 mM compound (17), 18 hours after LPS. The method, then: RAW264.7 cells (ATCC TIB 71) were suspended in Dulbecco's modified Eagle's medium (Bio Whittaker, 12-604F) containing 10% fetal calf serum (Gibco) at a concentration of 3×10^5 cells/ml. 0.5 ml of the suspension was added to each well of a 48-well microtiter plate and the plate was incubated at 37° C. overnight in the presence of 5% CO2. 5 μl of a solution containing the compound (14) at a concentration of 10 mM in water, 1 μl of a solution of the compound (7) at a concentration of 25 mM in dimethyl sulfoxide, or 1 μl of a solution of the compound (17) at a concentration of 50 mM in dimethyl sulfoxide was added to the well. After incubation for additional 5 hours, 5 μl of a solution of lipopolysaccharide (LPS, Sigma, L-2012) at a concentration of 100 μg/ml in water was added thereto. After incubation for 18 hours, a culture supernatant was collected. The content of interleukin 10 (IL-10) in the culture supernatant was measured using enzyme immuno sandwich assay (ELISA; Mouse IL-10 ELISA Kit, Endogen). As a control, a group to which the sample or the LPS aqueous solution was not added was provided. All of the measurements were carried out in duplicate.
FIG. 27 illustrates the IL-10 concentrations in culture supernatants obtained by culturing under various culture conditions. The horizontal axis represents the culture conditions and the vertical axis represents the IL-10 concentration (pg/ml).

Series [4] in a line: Conversion into DGE in culture medium (thin-layer chromatography). It is filed as in vitro ADME. To be noted: 10 mM in RPMI 1640 medium with 10% calf serum, 37° C., 4 hours. The method, then:
The compound (7) or the compound (9) synthesized in Example 1 was dissolved at a final concentration of 10 mM in RPMI 1640 medium supplemented with 10% calf serum. These samples were allowed to stand at 37° C. for 4 hours. […] each of the samples was then subjected to thin-layer chromatography using chloroform:methanol=5:1 as a developing solvent. Detection was carried out using orcinol-sulfuric acid.
For each sample, a spot with Rf value of 0.5, the same value as that for the compound of general formula IV in which Z is CH2OH and Y is H (L-glycero-1,5-epoxy-1αβ,6-dihydroxy-cis-hex-3-en-2-one, hereinafter referred to as DGE), was detected.

SMILES strings stand for the structures.

As for `O=C[C@H](O)[C@H]1OC[C@@H](O)[C@@H]1OC(=O)c1ccccc1` [Compound (7), 4-O-benzoyl-3,6-anhydro-D-galactose], in series [1], the “final concentration at which DNA fragmentation was observed” value was at least 100 µM. Further, the “inhibition of prostaglandin E2 production induction by LPS” value (“inhibition … by LPS” for short) in series [2] is “inhibited the prostaglandin E2 production induction by LPS”. Moreover, in series [3], the “inhibition of LPS-induced IL-10 production” value was “inhibition of LPS-induced IL-10 production was observed”.
For `OCC1OC(OC2C(CO)OC(OC3C(CO)OC(OC4C(O)COC4C(O)C(O)O)C(O)C3O)C(O)C2O)C(O)C(O)C1O` [Compound (14), 4-O-β-maltotoriosyl-3,6-anhydro-D-galactose], the “conversion into DGE (spot with Rf value of 0.5, the same value as DGE)” value in series [4] was “conversion into DGE was also observed”. For the same compound, in series [1], the “final concentration at which DNA fragmentation was observed” value was at least 75 µM. Further, the “inhibition … by LPS” value in series [2] is “inhibited the prostaglandin E2 production induction by LPS”. The “inhibition of LPS-induced IL-10 production” value in series [3] was “inhibition of LPS-induced IL-10 production was observed”.
`O=C[C@H](O)[C@H]1OC[C@@H](O)[C@@H]1OCc1ccccc1` [Compound (17), 4-O-benzyl-3,6-anhydro-D-galactose]: in series [4], the “conversion into DGE (spot with Rf value of 0.5, the same value as DGE)” value is “conversion into DGE was also observed”. Besides, the “inhibition … by LPS” value in series [2] is reported as “inhibited the prostaglandin E2 production induction by LPS”. Moreover, the “inhibition of LPS-induced IL-10 production” value in series [3] is listed as “inhibition of LPS-induced IL-10 production was observed”.
